# Reference: PMC5750218, “Protein-inspired antibiotics active against vancomycin- and daptomycin-resistant bacteria” (Nature Communications, 2018)
# Like-named read-outs stand apart in the source and are kept apart here.
# Columns and labels:
# in vitro = conditions: human, 50% human plasma (pooled, sodium heparin) in PBS, pH 7.4
# Procedure: (§3) Briefly, test compounds (20 μM) were prepared from a 0.2 mM H2O stock solution (40 μL in 400 μL assay volume) except eucatropine, which was 300 μg mL^−1 in 100% DMSO (10 μL in 400 μL assay volume equivalent to 23 μM). The precipitating solution was prepared by adding 5 μL of 10 mM carbutamide in DMSO to 100 mL acetonitrile (final concentration: 135.5 ng mL^−1 or 0.5 μM carbutamide). The human plasma sample (pooled normal human plasma sodium heparin anticoagulant, 2 µL, Cat No.: [sequence], BioReclamation) and phosphate-buffer saline (PBS, pH 7.4 isotonic) were pre-heated at 37 °C for 30 min. 40 μL of test compounds (0.2 mM) were added to protein-low binding Eppendorf tubes, 160 μL of buffer was added, and the mixture was vortexed. For eucatropine, 10 μL of eucatropine (300 μg mL^−1) was added to a protein-low binding Eppendorf tube, 190 μL of buffer was added, and the mixture was vortexed. In each case, 200 μL of plasma was added and the resultant mixture vortexed. For the initial time point (reaction time t = 0 h), 50 μL of sample was immediately transferred into a protein-low binding Eppendorf tube and quenched with 150 μL of the ice-cold precipitating solution, followed by vortexing and subsequent storage at 4 °C. For the remaining time points, the plasma solution was incubated and shaken (150 rpm) at 37 °C. 50 μL aliquots were collected at time points of 0, 1, 3, 6 and 24 h and quenched with 150 μL the ice-cold precipitating solution. All samples were placed in a 4 °C fridge for 30 min then centrifuged at 14,000 × g for 8 min at 4 °C. The supernatant (100 μL) was transferred to a glass vial insert and stored at 4 °C until LC-MS/MS analysis. The percentage of test compounds remaining at the individual time points relative to sample at time point 0 h were reported.
# S. pneumoniae ATCC 33400 = assay: microbe, parasite or virus in culture; assay type: cell-based, Streptococcus pneumoniae; conditions: Streptococcus pneumoniae, ATCC33400, 24 h
# Procedure: (§1) The compounds, along with standard antibiotics were serially diluted twofold across the wells of 96-well non-binding surface (NBS) polystyrene plates (Corning 3641). […] Standards ranged from 64 to 0.03 µg mL^−1 and compounds from 8 to 0.003 µg mL^−1 with final assay volumes of 100 µL per well. Gram-positive bacteria were cultured in Mueller Hinton broth (MHB) (Bactolaboratories, Cat. no. 211443) at 37 °C overnight. A sample of each culture was then diluted 40-fold in fresh MHB and incubated at 37 °C for 2–3 h. The resultant mid-log phase cultures were added to the compound-containing 96-well plates to give a final cell density of 5 × 10^5 colony forming unit (CFU) mL^−1. All the plates were covered and incubated at 37 °C for 24 h. MICs were the lowest concentration showing no visible growth.
# [1] = tested on: S. aureus ATCC 43300 MRSA; assay: microbe, parasite or virus in culture; assay type: cell-based, Staphylococcus aureus; conditions: Staphylococcus aureus, 24 h
# Procedure: as §1
# [2] = tested on: Bacillus subtilis ATCC 6633; assay: microbe, parasite or virus in culture; assay type: cell-based; conditions: for MIC: Bacillus subtilis; for Molar excess of Ac2Kaa ligand required to antagonise antibacterial activity: [ligand]/[antibiotic], B. subtilis ATCC 6633, 24 h
# [3] = In vivo pharmacokinetics in mice; conditions: mouse; for concentration at […]: 0.250 h; for concentration at 0.5 h: 0.500 h; for MRT inf: read-out: MRT0-inf; for MRT last: read-out: MRT0-last
# Haemolysis assay = assay type: cell-based; conditions: human, read-out: % Human Whole Blood Haemolysis
# [4] = tested on: Multi-drug-resistant S. pneumoniae ATCC 700677; assay: microbe, parasite or virus in culture; conditions: Streptococcus pneumoniae, ATCC700677, read-out: MIC MDR S.P.
# In short: (§2)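 MICs were determined by broth microdilution in Mueller Hinton broth. Bacteria were pregrown overnight, diluted 40-fold and regrown 2–3 h at 37 °C.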
# [5] = tested on: Vancomycin-intermediate S. aureus NRS1; assay: microbe, parasite or virus in culture; conditions: Staphylococcus aureus, NRS1 / VISA, read-out: MIC VISA
# In short: as §2
# [6] = tested on: Vancomycin-resistant (VanA) Enterococcus faecium ATCC 51559; assay: microbe, parasite or virus in culture; conditions: Enterococcus faecium, ATCC51559 / VRE, read-out: MIC VRE
# In short: as §2
# [7] = 37 °C, 20 µM
# Procedure: as §3
# [8] = male, CD1, plasma, 2 mg/kg IV, read-out: Plasma concentration, Mean IV
# [9] = male, CD1, plasma, 10 mg/kg SC, read-out: Plasma concentration, Mean SC
# [10] = male, CD1, plasma, IV 2 mg kg-1
# [11] = male, CD1, plasma, SC 10 mg kg-1
structure (smiles),measurement,setting,value
"CN[C@H](CC(C)C)C(=O)N[C@H]1C(=O)N[C@@H](CC(N)=O)C(=O)N[C@H]2C(=O)N[C@H]3C(=O)N[C@H](C(=O)N[C@H](C(=O)O)c4cc(O)cc(O)c4-c4cc3ccc4O)[C@H](O)c3ccc(c(Cl)c3)Oc3cc2cc(c3O[C@@H]2O[C@H](CO)[C@@H](O)[C@H](O)[C@H]2O[C@H]2C[C@](C)(N)[C@H](O)[C@H](C)O2)Oc2ccc(cc2Cl)[C@H]1O [Compound 1, Vancomycin]","remaining at 1 h, 20 µM",in vitro,100%
same,"remaining at 3 h, 20 µM",in vitro,87%
same,"remaining at 6 h, 20 µM",in vitro,91%
same,"remaining at 24 h, 20 µM",in vitro,63%
same,MIC,"S. pneumoniae ATCC 33400; read-out: MIC S. pneumoniae ATCC 33400, 1% Survanta",0.5 µg/mL
same,MIC,"S. pneumoniae ATCC 33400; read-out: MIC S. pneumoniae ATCC 33400, 5% Survanta",0.5 µg/mL
same,MIC,"S. pneumoniae ATCC 33400; read-out: MIC S. pneumoniae ATCC 33400, no added Survanta",0.5 µg/mL
same,MIC,"[1]; read-out: MIC S. aureus ATCC 43300 MRSA, 1% Survanta",0.5 µg/mL
same,MIC,"[1]; read-out: MIC S. aureus ATCC 43300 MRSA, 5% Survanta",0.5 µg/mL
same,MIC,"[1]; read-out: MIC S. aureus ATCC 43300 MRSA, no added Survanta",0.5 µg/mL
same,MIC,[2]; ATCC6633,0.25 µg/mL
same,MIC,"[2]; ATCC6633, read-out: Ac2Kaa concentration required to neutralise MIC activity",6.25 µg/mL
same,Molar excess of Ac2Kaa ligand required to antagonise antibacterial activity,[2],100
same,Molar excess of Ac2Kaa ligand required to antagonise antibacterial activity,[2]; listed as Vancomycin 1,96
same,bioavailability,"[3]; male, CD1, plasma, subcutaneous, SC 10 mg kg-1 vs IV 2 mg kg-1",70.5%
same,concentration at 5 min,"[3]; male, CD1, plasma, 2 mg/kg IV, 5 min, n=3",5790 ng/mL
same,concentration at […],[3]; [8],3590 ng/mL
same,concentration at 0.5 h,[3]; [8],1980 ng/mL
same,concentration at 1 h,[3]; [8],762 ng/mL
same,concentration at 2 h,[3]; [8],193 ng/mL
same,concentration at 4 h,[3]; [8],27.5 ng/mL
same,concentration at […],"[3]; male, CD1, plasma, 10 mg/kg SC, n=3, read-out: Plasma concentration, Mean SC",10700 ng/mL
same,concentration at 0.5 h,[3]; [9],9580 ng/mL
same,concentration at 1 h,[3]; [9],5200 ng/mL
same,concentration at 2 h,[3]; [9],1270 ng/mL
same,concentration at 4 h,[3]; [9],137 ng/mL
same,concentration at 8 h,"[3]; male, CD1, plasma, 10 mg/kg SC, 8.00 h",6.17 ng/mL
same,AUC(0-inf),[3]; [10],3240 ng·h/mL
same,AUC(0-t),[3]; [10],3210 ng·h/mL
same,C0,[3]; [10],7360 ng/mL
same,clearance,[3]; [10],10.4 mL/min/kg
same,half-life,[3]; [10],38.4 min
same,MRT inf,[3]; [10],37.2 min
same,MRT last,[3]; [10],35.4 min
same,Vd,"[3]; male, CD1, plasma, IV 2 mg kg-1, read-out: Vdss",0.39 L/kg
same,AUC(0-inf),[3]; [11],11400 ng·h/mL
same,AUC(0-t),[3]; [11],11400 ng·h/mL
same,Cmax,[3]; [11],10700 ng/mL
same,Tmax,[3]; [11],15 min
same,half-life,[3]; [11],48 min
same,MRT inf,[3]; [11],59.4 min
same,MRT last,[3]; [11],58.8 min
same,AUC0-inf/AUC0-last,[3]; IV 2 mg kg-1,101%
same,Tlast,[3]; IV 2 mg kg-1,4 h
same,AUC0-inf/AUC0-last,[3]; SC 10 mg kg-1,100%
same,Tlast,[3]; SC 10 mg kg-1,8 h
same,"hemolysis at 3 h, 25 µg mL-1",Haemolysis assay; 25 µg mL-1,0.1%
same,"hemolysis at 3 h, 50 µg mL-1",Haemolysis assay; 50 µg mL-1,0.4%
same,"hemolysis at 3 h, 100 µg mL-1",Haemolysis assay; 100 µg mL-1,0.3%
same,"hemolysis at 3 h, 200 µg mL-1",Haemolysis assay; 200 µg mL-1,0.8%
same,"hemolysis at 3 h, 400 µg mL-1",Haemolysis assay; 400 µg mL-1,0.8%
same,"hemolysis at 3 h, 800 µg mL-1",Haemolysis assay; 800 µg mL-1,0.8%
same,"hemolysis at 3 h, 1600 µg mL-1",Haemolysis assay; 1600 µg mL-1,1.5%
same,MIC,[4],1 µg/mL
same,MIC,[5],4 µg/mL
same,MIC,[6],> 64 µg/mL
same,"% compound remaining after incubation in 50% human plasma, 0h",[7],100%
